# Measurements reported in patent US20130022649A1, “SNALP FORMULATIONS CONTAINING ANTIOXIDANTS” (Protiva Biotherapeutics, Inc., priority 2009, published 2013).
# Assay: Lipid content and purity by reverse phase HPLC (Example 3 Study 3)
# Format: physicochemical
# Conditions: in 20 mM citrate 1:57 SNALP formulation
# Description: Samples were removed after 2 weeks of storage at room temperature (RT) or 40° C. (accelerated conditions). Samples were analyzed for particle size, encapsulation efficiency, lipid content and purity, and siRNA content and purity. Particle size measurements were obtained using a Malvern Zetasizer instrument and encapsulation efficiency was determined using a RiboGreen fluorometric assay. Lipid content and purity were analyzed by reverse phase HPLC. siRNA content and purity were analyzed by denaturing anion-exchange HPLC (DENAX).
# Reverse phase HPLC analysis was performed to assess the level of lipid degradation. The results are shown Tables 23-25. […] The formulations containing EDTA or EDTA combined with additional antioxidants had no significant change in lipid content at either storage temperature. The same trends in lipid stability were observed regardless of which cationic lipid was present in the formulation.
smiles,measurement,setting,value
"CCCCC/C=C\C/C=C\CCCCCCCCC(CCCCCCCC/C=C\C/C=C\CCCCC)OCCCCN(C)C [MC4 Ether, 4-((6Z,9Z,28Z,31Z)-heptatriaconta-6,9,28,31-tetraen-19-yloxy)-N,N-dimethylbutan-1-amine]",cationic lipid content before the drop,,about 58 mol %
same,cationic lipid content after storage,2 weeks at 40° C.,about 52 mol %
